Data: US10765114B2, “4-amino-6-(pyridyl and 2-substitutedphenyl)-picolinates and 6-amino-2-(pyridyl and 2-substitutedphenyl)-pyrimidine-4-carboxylates and their use as herbicides” (Dow AgroSciences LLC, priority 2013, dated 2020)
Where two headings read alike, the source gives them in different places. Each block holds one compound with its values, some of them ahead of it.

Legend:
[1] = system: Key Grass and Sedge Weeds as well as Grass Crops; assay: Post-Emergent Test II (Table 6); format: in vivo; conditions: post-emergence, 336 h, 14 days after application; for pest or weed control at 70 g/ha: 70 g ai/ha; for pest or weed control at 140 g/ha: 140 g ai/ha
Outline: (§1)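 Growth stage at treatment: first or second true leaf. Application: compound in acetone/DMSO diluted into an adjuvant-containing aqueous mix, sprayed at 187 L/ha at several rates. Assessment: visual 0-100% injury at 14 days against untreated plants.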

[2] = system: Key Broadleaf Weed and Crop Species; assay: Post-Emergent Test II (Table 5); format: in vivo; conditions: post-emergence, 336 h; for pest or weed control at 70 g/ha: application rate 70 (kg ai/ha; footnote: g ai/ha); for pest or weed control at 140 g/ha: application rate 140 (kg ai/ha; footnote: g ai/ha)
Outline: as §1

[3] = CYPSS, read-out: Visual Growth Reduction (%) 14 Days After Application CYPSS
[4] = DIGSA: crabgrass (Digitaria sanguinalis), read-out: Visual Growth Reduction (%) 14 Days After Application DIGSA
[5] = ORYSS (crop), read-out: Visual Growth Reduction (%) 14 Days After Application ORYSS
[6] = SETFA: giant foxtail (Setaria faberi), read-out: Visual Growth Reduction (%) 14 Days After Application SETFA
[7] = SORVU: grain sorghum (Sorghum vulgare), read-out: Visual Growth Reduction (%) 14 Days After Application SORVU
[8] = TRZSS (crop), read-out: Visual Growth Reduction (%) 14 Days After Application TRZSS
[9] = ZEAMX: maize, corn (Zea mays), read-out: Visual Growth Reduction (%) 14 Days After Application ZEAMX
[10] = Abutilon theophrasti, ABUTH: velvetleaf (Abutilon theophrasti), read-out: Visual Growth Reduction (%) 14 Days After Application ABUTH
[11] = Amaranthus retroflexus, AMARE: redroot pigweed (Amaranthus retroflexus), read-out: Visual Growth Reduction (%) 14 Days After Application AMARE
[12] = Brassica napus, BRSSS: oilseed rape, canola (Brassica napus), read-out: Visual Growth Reduction (%) 14 Days After Application BRSSS
[13] = Chenopodium album, CHEAL: lambsquarters (Chenopodium album), read-out: Visual Growth Reduction (%) 14 Days After Application CHEAL
[14] = Euphorbia heterophylla, EPHHL: wild poinsettia (Euphorbia heterophylla), read-out: Visual Growth Reduction (%) 14 Days After Application EPHHL
[15] = Helianthus annuus, HELAN: sunflower (Helianthus annuus), read-out: Visual Growth Reduction (%) 14 Days After Application HELAN
[16] = Viola tricolor, VIOTR: wild pansy (Viola tricolor), read-out: Visual Growth Reduction (%) 14 Days After Application VIOTR

melting point: 122 to 136 °C
SMILES: COC(=O)c1nc(-c2ccc(Cl)c(F)c2C)c(Cl)c(N)c1Cl [Compound 3]
pest or weed control at 70 g/ha [1, 3]: 0 to 29%
pest or weed control at 140 g/ha [1, 3]: 0 to 29%
pest or weed control at 70 g/ha [1, 4]: 0 to 29%
pest or weed control at 140 g/ha [1, 4]: 0 to 29%
pest or weed control at 70 g/ha [1, 5]: 0 to 29%
pest or weed control at 140 g/ha [1, 5]: 0 to 29%
pest or weed control at 70 g/ha [1, 6]: 0 to 29%
pest or weed control at 140 g/ha [1, 6]: 0 to 29%
pest or weed control at 70 g/ha [1, 7]: 0 to 29%
pest or weed control at 140 g/ha [1, 7]: 0 to 29%
pest or weed control at 70 g/ha [1, 8]: 0 to 29%
pest or weed control at 140 g/ha [1, 8]: 0 to 29%
pest or weed control at 70 g/ha [1, 9]: 0 to 29%
pest or weed control at 140 g/ha [1, 9]: 0 to 29%
pest or weed control at 70 g/ha [2, 10]: 60 to 74%
pest or weed control at 140 g/ha [2, 10]: 60 to 74%
pest or weed control at 70 g/ha [2, 11]: 95 to 100%
pest or weed control at 140 g/ha [2, 11]: 95 to 100%
pest or weed control at 70 g/ha [2, 12]: 0 to 29%
pest or weed control at 140 g/ha [2, 12]: 0 to 29%
pest or weed control at 70 g/ha [2, 13]: 60 to 74%
pest or weed control at 140 g/ha [2, 13]: 75 to 84%
pest or weed control at 70 g/ha [2, 14]: 0 to 29%
pest or weed control at 140 g/ha [2, 14]: 0 to 29%
pest or weed control at 70 g/ha [2, 15]: 75 to 84%
pest or weed control at 140 g/ha [2, 15]: 75 to 84%
pest or weed control at 70 g/ha [2, 16]: 0 to 29%
pest or weed control at 140 g/ha [2, 16]: 0 to 29%

melting point: 183 to 189 °C
SMILES: COC(=O)c1nc(-c2ccc(Cl)c(F)c2Cl)cc(N)c1Cl [Compound 72]
pest or weed control at 70 g/ha [1, 3]: 95 to 100%
pest or weed control at 140 g/ha [1, 3]: 95 to 100%
pest or weed control at 70 g/ha [1, 4]: 75 to 84%
pest or weed control at 140 g/ha [1, 4]: 75 to 84%
pest or weed control at 70 g/ha [1, 5]: 0 to 29%
pest or weed control at 140 g/ha [1, 5]: 0 to 29%
pest or weed control at 70 g/ha [1, 6]: 75 to 84%
pest or weed control at 140 g/ha [1, 6]: 75 to 84%
pest or weed control at 70 g/ha [1, 7]: 60 to 74%
pest or weed control at 140 g/ha [1, 7]: 95 to 100%
pest or weed control at 70 g/ha [1, 8]: 45 to 59%
pest or weed control at 140 g/ha [1, 8]: 45 to 59%
pest or weed control at 70 g/ha [1, 9]: 60 to 74%
pest or weed control at 140 g/ha [1, 9]: 75 to 84%
pest or weed control at 70 g/ha [2, 10]: 95 to 100%
pest or weed control at 140 g/ha [2, 10]: 95 to 100%
pest or weed control at 70 g/ha [2, 11]: 95 to 100%
pest or weed control at 140 g/ha [2, 11]: 95 to 100%
pest or weed control at 70 g/ha [2, 12]: 85 to 94%
pest or weed control at 140 g/ha [2, 12]: 95 to 100%
pest or weed control at 70 g/ha [2, 13]: 95 to 100%
pest or weed control at 140 g/ha [2, 13]: 95 to 100%
pest or weed control at 70 g/ha [2, 14]: 85 to 94%
pest or weed control at 140 g/ha [2, 14]: 85 to 94%
pest or weed control at 70 g/ha [2, 15]: 75 to 84%
pest or weed control at 140 g/ha [2, 15]: 85 to 94%
pest or weed control at 70 g/ha [2, 16]: 95 to 100%
pest or weed control at 140 g/ha [2, 16]: 95 to 100%
